Results reported in patent publication US20260000728A1, “PEPTIDE HAVING ACE INHIBITORY ACTIVITY AND COMPOSITION CONTAINING THE SAME” (Vedan International (Holdings) Limited, priority 2024, published 2026).

Test system: Spontaneously hypertensive rats (SHR)
Experiment: Animal Test (2): 8-week feeding, weekly blood pressure in SHR
Format: in vivo, rat
Conditions: PC group, 1 mg/kg
Method: Six-week-old spontaneously hypertensive rats (SHR) were divided into 5 groups, each receiving the corresponding treatment stated below: • Negative control group (NC group): feeding with water • Positive control group (PC group): feeding with hypertension drug Captopril at 1 mg/kg • Low-dose group (L group): feeding with the peptide composition disclosed herein at a dose of 50 mg/kg • Medium-dose group (M group): feeding with the peptide composition disclosed herein at a dose of 100 mg/kg • High-dose group (H group): feeding with the peptide composition disclosed herein at a dose of 200 mg/kg
The experiment lasted for a total of 8 weeks.

C[C@H](CS)C(=O)N1CCC[C@H]1C(=O)O [Captopril]
Diastolic blood pressure (Week 0): 80.2 ± 6.5 mmHg | Systolic blood pressure (Week 0): 111.0 ± 7.2 mmHg | Diastolic blood pressure (Week 1): 79.9 ± 6.3 mmHg | Systolic blood pressure (Week 1): 110.2 ± 5.8 mmHg | Diastolic blood pressure (Week 2): 79.0 ± 5.3 mmHg | Systolic blood pressure (Week 2): 108.8 ± 4.2 mmHg | Diastolic blood pressure (Week 3): 78.9 ± 6.4 mmHg | Systolic blood pressure (Week 3): 108.6 ± 4.3 mmHg | Diastolic blood pressure (Week 4): 78.9 ± 3.9 mmHg | Systolic blood pressure (Week 4): 108.4 ± 3.9 mmHg | Diastolic blood pressure (Week 5): 78.8 ± 3.8 mmHg | Systolic blood pressure (Week 5): 108.1 ± 4.1 mmHg | Diastolic blood pressure (Week 6): 78.8 ± 3.2 mmHg | Systolic blood pressure (Week 6): 108.1 ± 2.0 mmHg | Diastolic blood pressure (Week 7): 78.8 ± 5.0 mmHg | Systolic blood pressure (Week 7): 108.0 ± 3.1 mmHg | Diastolic blood pressure (Week 8): 78.8 ± 2.9 mmHg | Systolic blood pressure (Week 8): 108.0 ± 2.5 mmHg
